Laboratory results published in patent US9718813B2, “Imidazolin-5-one derivative useful as FASN inhibitors for the treatment of cancer” (Janssen Pharmaceutica, NV, priority 2013, dated 2017).

What was measured:
[1] = target: FASN Keto-reductase Domain (hFASN enzyme, full length) (Homo sapiens (Human), UniProt P49327); assay: Fatty Acid Synthase Keto-reductase Domain (FASN KR) Inhibition; type: biochemical; settings: NADPH oxidation at 340 nm, ethyl acetoacetate substrate
Experimental: After 20 minutes incubation at room temperature the plate was measured again (T2).
The decrease in absorbance was calculated as (Absorbance before incubation T1)−(Absorbance following incubation T2).
Raw data generated by the instrument were normalized to % Controlmin values, which were calculated as: % Controlmin=100*(x−mLC)/(mHC−mLC)
where mLC and mHC were the means of the low control wells and high control wells on the plate, after manual exclusion of outliers. A plot of Controlmin versus test compound concentration was fitted to a 4-parameter logistic curve using a non-linear least squares regression method.

[2] = target: hFASN enzyme (full length) (Homo sapiens (Human), UniProt P49327); assay: Fatty Acid Synthase (FASN) Inhibition Scintillation Proximity Assay; type: biochemical; settings: 3H-acetyl-CoA and malonyl-CoA substrates, SPA, mean if tested more than once
Outline: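 Full-length human FASN (300 ng, in-house purified) in 100 mM KH2PO4 pH 7.5, 1 mM DTT converts 3H-acetyl-CoA plus malonyl-CoA to hydrophobic 3H-palmitate, captured by streptavidin imaging beads and read on LEADseeker at 610 nm after ≥24 h. Compounds tested 0.01–30 μM; data normalized to plate controls and fitted to 4-parameter logistic curves.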

A2780 ovarian cells = assay: A2780 Ovarian Cell Proliferation Assay in Lipid Reduced Medium, with Palmitate; type: cell-based; settings: Homo sapiens, 10% lipid-reduced serum, 25 μM palmitate, 96 h, MTT, read-out: pIC50 With Palmitate (converted)
Experimental: The biological assays described below correspond to comparative assays for ovarian cell proliferation.
2500 cells were seeded in a 96-well clear well plate in 200 μL RPM11640 with 10% Fetal Calf Serum (Hyclone), and incubated at 37° C., 5% CO2. Blanks were wells without cells. The next day the culture medium was aspirated and replaced by 160 μL culture medium with 10% Lipid-Reduced Serum (LRS, Hyclone). […] After 96 h incubation, an MTT assay was performed.

Sequence of hFASN enzyme (full length) (P49327 whole entry): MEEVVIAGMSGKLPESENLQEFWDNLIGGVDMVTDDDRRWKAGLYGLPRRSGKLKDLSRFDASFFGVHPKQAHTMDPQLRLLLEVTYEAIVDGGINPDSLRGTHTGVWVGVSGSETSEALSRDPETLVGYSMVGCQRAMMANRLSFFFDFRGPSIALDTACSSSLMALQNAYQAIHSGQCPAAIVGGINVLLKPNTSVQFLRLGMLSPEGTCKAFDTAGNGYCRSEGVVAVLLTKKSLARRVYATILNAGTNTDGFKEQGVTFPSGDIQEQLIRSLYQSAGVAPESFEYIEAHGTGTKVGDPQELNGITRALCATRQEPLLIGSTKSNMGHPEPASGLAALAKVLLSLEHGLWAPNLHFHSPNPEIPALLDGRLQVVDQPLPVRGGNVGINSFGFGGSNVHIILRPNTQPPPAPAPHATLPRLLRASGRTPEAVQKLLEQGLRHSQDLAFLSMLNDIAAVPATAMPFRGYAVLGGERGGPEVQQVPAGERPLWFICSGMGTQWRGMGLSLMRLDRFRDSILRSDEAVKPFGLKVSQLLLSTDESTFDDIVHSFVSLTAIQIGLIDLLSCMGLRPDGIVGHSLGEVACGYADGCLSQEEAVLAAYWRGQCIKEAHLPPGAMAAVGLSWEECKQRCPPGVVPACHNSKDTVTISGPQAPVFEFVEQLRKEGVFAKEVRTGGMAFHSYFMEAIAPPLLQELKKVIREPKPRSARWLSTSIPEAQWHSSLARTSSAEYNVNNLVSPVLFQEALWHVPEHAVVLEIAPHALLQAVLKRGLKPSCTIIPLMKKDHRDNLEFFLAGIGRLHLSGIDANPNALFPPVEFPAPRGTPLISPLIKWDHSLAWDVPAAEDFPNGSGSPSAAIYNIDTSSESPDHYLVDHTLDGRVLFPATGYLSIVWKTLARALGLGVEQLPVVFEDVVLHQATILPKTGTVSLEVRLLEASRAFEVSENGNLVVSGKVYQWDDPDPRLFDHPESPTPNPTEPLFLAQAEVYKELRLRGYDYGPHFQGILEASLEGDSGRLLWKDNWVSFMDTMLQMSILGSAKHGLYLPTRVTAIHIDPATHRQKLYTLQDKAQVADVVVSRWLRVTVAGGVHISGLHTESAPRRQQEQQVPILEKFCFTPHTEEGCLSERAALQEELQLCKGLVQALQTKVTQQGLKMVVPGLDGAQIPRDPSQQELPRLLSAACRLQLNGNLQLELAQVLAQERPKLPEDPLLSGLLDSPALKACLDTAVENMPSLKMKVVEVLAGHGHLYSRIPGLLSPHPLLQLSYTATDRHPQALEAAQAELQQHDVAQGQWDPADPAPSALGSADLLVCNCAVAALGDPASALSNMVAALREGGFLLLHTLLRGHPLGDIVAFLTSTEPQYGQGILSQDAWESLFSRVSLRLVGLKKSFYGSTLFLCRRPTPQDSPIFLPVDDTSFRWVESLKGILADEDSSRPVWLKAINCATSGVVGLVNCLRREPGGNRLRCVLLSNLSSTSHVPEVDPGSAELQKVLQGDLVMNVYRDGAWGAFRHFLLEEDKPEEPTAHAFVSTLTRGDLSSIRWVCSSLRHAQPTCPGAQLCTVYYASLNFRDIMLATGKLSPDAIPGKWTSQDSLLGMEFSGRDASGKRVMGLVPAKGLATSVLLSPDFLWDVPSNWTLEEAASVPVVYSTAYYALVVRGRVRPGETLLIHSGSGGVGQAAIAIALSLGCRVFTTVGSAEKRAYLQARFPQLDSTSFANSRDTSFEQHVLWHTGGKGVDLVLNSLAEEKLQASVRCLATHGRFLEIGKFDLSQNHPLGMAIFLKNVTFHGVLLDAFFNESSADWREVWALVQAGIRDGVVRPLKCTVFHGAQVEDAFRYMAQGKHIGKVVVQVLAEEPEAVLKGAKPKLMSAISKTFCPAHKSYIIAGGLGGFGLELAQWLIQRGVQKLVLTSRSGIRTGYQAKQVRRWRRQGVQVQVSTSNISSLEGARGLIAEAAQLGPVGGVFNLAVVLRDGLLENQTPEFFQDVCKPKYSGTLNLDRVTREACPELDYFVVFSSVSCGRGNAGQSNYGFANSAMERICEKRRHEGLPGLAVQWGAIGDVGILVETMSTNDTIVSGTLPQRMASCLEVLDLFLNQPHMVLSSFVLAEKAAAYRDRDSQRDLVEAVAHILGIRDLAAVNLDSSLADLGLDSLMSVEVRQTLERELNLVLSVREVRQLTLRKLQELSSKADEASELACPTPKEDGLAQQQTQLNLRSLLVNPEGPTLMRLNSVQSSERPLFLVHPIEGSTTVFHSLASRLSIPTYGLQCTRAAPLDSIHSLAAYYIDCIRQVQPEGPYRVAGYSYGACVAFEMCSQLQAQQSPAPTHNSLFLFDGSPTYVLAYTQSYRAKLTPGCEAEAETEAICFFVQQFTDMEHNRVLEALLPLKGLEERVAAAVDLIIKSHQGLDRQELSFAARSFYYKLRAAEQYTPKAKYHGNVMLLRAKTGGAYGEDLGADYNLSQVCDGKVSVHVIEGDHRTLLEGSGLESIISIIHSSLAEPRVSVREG
Sequence of FASN Keto-reductase Domain (hFASN enzyme, full length) (P49327 whole entry, the tested form may be a part): as the sequence (P49327 whole entry) above

SMILES | FASN Keto-reductase Domain pIC50 [1] | Human FASN pIC50 [2] | IC50 (A2780 ovarian cells) [µM]
CC1(C)N=C(c2ccc(-c3ccc4cc(F)ccc4c3)cc2F)N(C[C@@H]2CCN(C(=O)C3CC3)C2)C1=O [Compound 66, (R)-1-((1-(cyclopropanecarbonyl)pyrrolidin-3-yl)methyl)-2-(2-fluoro-4-(6-fluoronaphthalen-2-yl)phenyl)-4,4-dimethyl-1H-imidazol-5(4H)-one] | 7.28 | 7.48 | > 10
CC1(C)N=C(c2ccc(-c3ccc4cccc(F)c4c3)cc2F)N(C[C@@H]2CCN(C(=O)C3CC3)C2)C1=O [Compound 67, (R)-1-((1-(cyclopropanecarbonyl)pyrrolidin-3-yl)methyl)-2-(2-fluoro-4-(8-fluoronaphthalen-2-yl)phenyl)-4,4-dimethyl-1H-imidazol-5(4H)-one] |  |  | > 10
CC1(C)N=C(c2ccc(-c3ccc4cnccc4c3)cc2F)N(C[C@@H]2CCN(C(=O)C3CC3)C2)C1=O [Compound 68, (R)-1-((1-(cyclopropanecarbonyl)pyrrolidin-3-yl)methyl)-2-(2-fluoro-4-(isoquinolin-6-yl)phenyl)-4,4-dimethyl-1H-imidazol-5(4H)-one] | 7.32 | 7.26 | > 10
CC1(C(=O)N2CC(CN3C(=O)C(C)(C)N=C3c3ccc(-c4ccc5cc(F)ccc5c4)cc3F)C2)CC1 [Compound 72, 2-(2-fluoro-4-(6-fluoronaphthalen-2-yl)phenyl)-4,4-dimethyl-1-((1-(1-methylcyclopropanecarbonyl)azetidin-3-yl)methyl)-1H-imidazol-5(4H)-one] | 7.23 | 7.45 | 
Cn1ncc2cc(-c3ccc(C4=NC(C)(C)C(=O)N4C[C@@H]4CCN(C(=O)C5(C)CC5)C4)c(F)c3)ccc21 [Compound 73, (R)-2-(2-fluoro-4-(1-methyl-1H-indazol-5-yl)phenyl)-4,4-dimethyl-1-((1-(1-methylcyclopropanecarbonyl)pyrrolidin-3-yl)methyl)-1H-imidazol-5(4H)-one] | 7.17 | 7.18 | 
Cn1cc(-c2ccc(-c3ccc(C4=NC(C)(C)C(=O)N4C[C@@H]4CCN(C(=O)C5(C)CC5)C4)c(F)c3)cc2)cn1 [Compound 74, (R)-2-(3-fluoro-4′-(1-methyl-1H-pyrazol-4-yl)-[1,1′-biphenyl]-4-yl)-4,4-dimethyl-1-((1-(1-methylcyclopropanecarbonyl)pyrrolidin-3-yl)methyl)-1H-imidazol-5(4H)-one] | 7.38 | 7.26 | 
Cc1cc(-c2ccc3c(cnn3C)c2)ccc1C1=NC(C)(C)C(=O)N1CC1CN(C(=O)C2(C)CC2)C1 [Compound 77, 4,4-dimethyl-2-(2-methyl-4-(1-methyl-1H-indazol-5-yl)phenyl)-1-((1-(1-methylcyclopropanecarbonyl)azetidin-3-yl)methyl)-1H-imidazol-5(4H)-one] | 6.44 | 6.82 | 
Cn1ncc2cc(-c3ccc(C4=NC(C)(C)C(=O)N4CC4CN(C(=O)C5(O)CC5)C4)c(F)c3)ccc21 [Compound 78, 2-(2-fluoro-4-(1-methyl-1H-indazol-5-yl)phenyl)-1-((1-(1-hydroxycyclopropanecarbonyl)azetidin-3-yl)methyl)-4,4-dimethyl-1H-imidazol-5(4H)-one] | 6.19 | 6.61 | 
CC1(C)N=C(c2ccc(-c3ccc4cc(F)ccc4c3)cc2F)N(CC2CN(C(=O)C3(O)CC3)C2)C1=O [Compound 79, 2-(2-fluoro-4-(6-fluoronaphthalen-2-yl)phenyl)-1-((1-(1-hydroxycyclopropanecarbonyl)azetidin-3-yl)methyl)-4,4-dimethyl-1H-imidazol-5(4H)-one] | 6.92 | 7.52 | 
Cc1cc(-c2ccc3c(cnn3C)c2)ccc1C1=NC(C)(C)C(=O)N1C[C@@H]1CCN(C(=O)C2(C)CC2)C1 [Compound 80, (R)-4,4-dimethyl-2-(2-methyl-4-(1-methyl-1H-indazol-5-yl)phenyl)-1-((1-(1-methylcyclopropanecarbonyl)pyrrolidin-3-yl)methyl)-1H-imidazol-5(4H)-one] | 6.96 | 7.20 | 
Cn1cc(-c2ccc(-c3ccc(C4=NC(C)(C)C(=O)N4CC4CN(C(=O)C5(O)CC5)C4)c(F)c3)cc2)cn1 [Compound 81, 2-(3-fluoro-4′-(1-methyl-1H-pyrazol-4-yl)-[1,1′-biphenyl]-4-yl)-1-((1-(1-hydroxycyclopropanecarbonyl)azetidin-3-yl)methyl)-4,4-dimethyl-1H-imidazol-5(4H)-one] | 6.10 | 6.28 | 
Cc1cc(-c2ccc3cc(F)ccc3c2)ccc1C1=NC(C)(C)C(=O)N1CC1CN(C(=O)C2(C)CC2)C1 [Compound 82, 2-(4-(6-fluoronaphthalen-2-yl)-2-methylphenyl)-4,4-dimethyl-1-((1-(1-methylcyclopropanecarbonyl)azetidin-3-yl)methyl)-1H-imidazol-5(4H)-one] | 7.30 | 7.47 | 
Cc1cc(-c2ccc3c(c2)ncn3C)ccc1C1=NC(C)(C)C(=O)N1CC1CN(C(=O)C2(C)CC2)C1 [Compound 83, 4,4-dimethyl-2-(2-methyl-4-(1-methyl-1H-benzo[d]imidazol-5-yl)phenyl)-1-((1-(1-methylcyclopropanecarbonyl)azetidin-3-yl)methyl)-1H-imidazol-5(4H)-one] | 6.76 | 6.99 | 
Cc1cc(-c2ccc(-c3cnn(C)c3)cc2)ccc1C1=NC(C)(C)C(=O)N1C[C@@H]1CCN(C(=O)C2(C)CC2)C1 [Compound 84, (R)-4,4-dimethyl-2-(3-methyl-4′-(1-methyl-1H-pyrazol-4-yl)-[1,1′-biphenyl]-4-yl)-1-((1-(1-methylcyclopropanecarbonyl)pyrrolidin-3-yl)methyl)-1H-imidazol-5(4H)-one] | 7.27 | 7.27 | 
Cc1cc(-c2ccc3c(c2)ncn3C)ccc1C1=NC(C)(C)C(=O)N1C[C@@H]1CCN(C(=O)C2(C)CC2)C1 [Compound 85, (R)-4,4-dimethyl-2-(2-methyl-4-(1-methyl-1H-benzo[d]imidazol-5-yl)phenyl)-1-((1-(1-methylcyclopropanecarbonyl)pyrrolidin-3-yl)methyl)-1H-imidazol-5(4H)-one] | 6.80 | 7.10 | 
Cc1cc(-c2ccc3cc(F)ccc3c2)ccc1C1=NC(C)(C)C(=O)N1C[C@@H]1CCN(C(=O)C2(C)CC2)C1 [Compound 86, (R)-2-(4-(6-fluoronaphthalen-2-yl)-2-methylphenyl)-4,4-dimethyl-1-((1-(1-methylcyclopropanecarbonyl)pyrrolidin-3-yl)methyl)-1H-imidazol-5(4H)-one] | 7.60 | 7.37 | 
Cc1cc(-c2ccc(-c3cnn(C)c3)cc2)ccc1C1=NC(C)(C)C(=O)N1CC1CN(C(=O)C2(C)CC2)C1 [Compound 87, 4,4-dimethyl-2-(3-methyl-4′-(1-methyl-1H-pyrazol-4-yl)-[1,1′-biphenyl]-4-yl)-1-((1-(1-methylcyclopropanecarbonyl)azetidin-3-yl)methyl)-1H-imidazol-5(4H)-one] | 7.06 | 7.12 | 
